Assay results as given in the NIST ThermoML archive (doi:10.1016/j.jct.2015.10.026).

Legend:
[1] = 101.33 kPa, Liquid; for electrical conductivity: Direct current cell with electrodes; for mass density: Vibrating tube method
[2] = mn = molality of the nth substance listed, in mol/kg; settings: 100 kPa, Liquid, Capillary tube (Ostwald / Ubbelohde) method, m2 = 0

CCCCn1cc[n+](C)c1.NCCS(=O)(=O)[O-] [1-butyl-3-methylimidazolium taurate]
[1], Cone and plate viscometry
Settings	viscosity [mPa·s]
293.15 K	1761.4
298.15 K	1169.2
303.15 K	799.87
308.15 K	561.88
313.15 K	405.34
318.15 K	298.26
323.15 K	224.97

[1]
Settings	electrical conductivity [S/m]	mass density [kg/m3]
293.15 K	0.0098	1195.4
298.15 K	0.0161	1192.1
303.15 K	0.0257	1188.77
308.15 K	0.0356	1185.4
313.15 K	0.0518	1182.02
318.15 K	0.0697	1178.53
323.15 K	0.0922	1175.06

O [water]
[1], Capillary tube (Ostwald / Ubbelohde) method
Settings	viscosity [mPa·s]
293.15 K	1.003
298.15 K	0.89
303.15 K	0.797
308.15 K	0.719
313.15 K	0.653

O [water] + CCCCn1cc[n+](C)c1.NCCS(=O)(=O)[O-]
[2]
Settings	viscosity [mPa·s]
293.15 K	1.003
298.15 K	0.89
303.15 K	0.797
308.15 K	0.719
313.15 K	0.653
